Data as given in the supplement of paper PMC12076712.

Experiments:
Assay in all cases: pIC50, kinobeads binding competition
[1] = target: BMPR1B (UniProt O00238); conditions: cell material: Lysate mix
Summary of the method: (§1)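 Nine compound concentrations were tested, starting at 30 μM in 1:4 steps on live Jurkat cells (60 min, 37 °C, then lysis) or in 1:5 steps on Jurkat lysate or a 1:1:1:1 HEK293/K-562/HepG2/placenta lysate mix (60 min, 4 °C). Kinobeads-bound proteins were digested and quantified with TMT10 LC-MS/MS. pIC50 values are from logistic dose-response fits in the R drc package of fold changes relative to vehicle, from biological duplicates.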

[2] = target: UniProt P45983
Chain of UniProt P45983 (P45983 whole entry): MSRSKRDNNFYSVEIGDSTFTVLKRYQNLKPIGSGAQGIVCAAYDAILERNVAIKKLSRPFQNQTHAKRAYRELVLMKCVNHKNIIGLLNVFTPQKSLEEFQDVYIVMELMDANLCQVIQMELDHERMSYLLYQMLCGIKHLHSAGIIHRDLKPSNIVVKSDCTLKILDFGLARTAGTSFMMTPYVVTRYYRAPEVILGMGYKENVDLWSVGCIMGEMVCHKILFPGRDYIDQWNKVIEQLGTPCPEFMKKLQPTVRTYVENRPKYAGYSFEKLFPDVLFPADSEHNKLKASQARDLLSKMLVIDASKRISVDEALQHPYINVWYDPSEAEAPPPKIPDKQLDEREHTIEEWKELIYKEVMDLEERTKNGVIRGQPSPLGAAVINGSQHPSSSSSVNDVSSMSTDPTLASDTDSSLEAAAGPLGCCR
Summary of the method: as §1

[3] = target: MAP4K5 (UniProt Q9Y4K4)
Chain of MAP4K5 (Q9Y4K4 whole entry, looked up): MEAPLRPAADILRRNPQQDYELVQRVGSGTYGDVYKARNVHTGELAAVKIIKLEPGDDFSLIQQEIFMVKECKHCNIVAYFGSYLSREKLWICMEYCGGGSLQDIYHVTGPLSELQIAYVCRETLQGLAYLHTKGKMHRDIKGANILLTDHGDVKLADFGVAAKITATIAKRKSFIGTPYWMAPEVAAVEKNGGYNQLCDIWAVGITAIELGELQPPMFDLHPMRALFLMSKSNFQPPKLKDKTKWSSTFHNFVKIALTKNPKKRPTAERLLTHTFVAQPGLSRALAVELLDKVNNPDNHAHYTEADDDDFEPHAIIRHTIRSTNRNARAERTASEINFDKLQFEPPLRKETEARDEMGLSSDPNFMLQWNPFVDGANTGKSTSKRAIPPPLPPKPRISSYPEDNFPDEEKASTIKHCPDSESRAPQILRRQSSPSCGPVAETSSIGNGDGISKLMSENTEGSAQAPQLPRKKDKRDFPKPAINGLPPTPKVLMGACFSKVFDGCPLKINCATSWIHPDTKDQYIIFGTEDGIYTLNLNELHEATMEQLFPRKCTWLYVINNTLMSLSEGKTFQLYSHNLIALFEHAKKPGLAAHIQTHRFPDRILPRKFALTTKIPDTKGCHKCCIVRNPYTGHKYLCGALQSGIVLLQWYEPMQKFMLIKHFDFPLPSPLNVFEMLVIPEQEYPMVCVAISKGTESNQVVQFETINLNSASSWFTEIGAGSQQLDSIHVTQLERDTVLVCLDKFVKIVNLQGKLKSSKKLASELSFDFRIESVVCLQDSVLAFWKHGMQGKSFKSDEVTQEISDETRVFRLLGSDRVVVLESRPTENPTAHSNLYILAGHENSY
Summary of the method: as §1

[4] = target: T1, ULK3 (UniProt Q6PHR2)
T1 sequence (whole entry): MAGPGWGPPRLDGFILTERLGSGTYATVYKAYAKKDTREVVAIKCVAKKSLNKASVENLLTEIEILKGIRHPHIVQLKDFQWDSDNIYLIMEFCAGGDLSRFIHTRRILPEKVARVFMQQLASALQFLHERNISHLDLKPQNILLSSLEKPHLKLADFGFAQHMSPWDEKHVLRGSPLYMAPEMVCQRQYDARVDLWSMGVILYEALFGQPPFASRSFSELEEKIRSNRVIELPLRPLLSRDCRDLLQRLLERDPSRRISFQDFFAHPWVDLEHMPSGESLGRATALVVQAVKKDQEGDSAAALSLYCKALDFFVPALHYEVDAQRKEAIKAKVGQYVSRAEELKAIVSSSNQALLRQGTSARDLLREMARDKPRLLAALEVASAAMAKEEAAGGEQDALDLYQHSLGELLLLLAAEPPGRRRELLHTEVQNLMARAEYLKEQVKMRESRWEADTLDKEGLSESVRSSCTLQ
Summary of the method: as §1

[5] = target: UniProt Q96GD4
Chain of UniProt Q96GD4 (Q96GD4 whole entry): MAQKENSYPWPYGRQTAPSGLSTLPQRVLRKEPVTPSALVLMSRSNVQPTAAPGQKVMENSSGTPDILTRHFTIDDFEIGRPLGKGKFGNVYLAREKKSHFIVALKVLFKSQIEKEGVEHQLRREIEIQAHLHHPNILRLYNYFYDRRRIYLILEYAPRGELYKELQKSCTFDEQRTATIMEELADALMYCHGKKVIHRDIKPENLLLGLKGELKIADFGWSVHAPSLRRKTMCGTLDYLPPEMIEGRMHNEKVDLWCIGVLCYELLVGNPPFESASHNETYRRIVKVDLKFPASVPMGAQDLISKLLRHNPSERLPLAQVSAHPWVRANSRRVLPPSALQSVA
Summary of the method: as §1

[6] = target: UniProt P49840
Chain of UniProt P49840 (P49840 whole entry, looked up): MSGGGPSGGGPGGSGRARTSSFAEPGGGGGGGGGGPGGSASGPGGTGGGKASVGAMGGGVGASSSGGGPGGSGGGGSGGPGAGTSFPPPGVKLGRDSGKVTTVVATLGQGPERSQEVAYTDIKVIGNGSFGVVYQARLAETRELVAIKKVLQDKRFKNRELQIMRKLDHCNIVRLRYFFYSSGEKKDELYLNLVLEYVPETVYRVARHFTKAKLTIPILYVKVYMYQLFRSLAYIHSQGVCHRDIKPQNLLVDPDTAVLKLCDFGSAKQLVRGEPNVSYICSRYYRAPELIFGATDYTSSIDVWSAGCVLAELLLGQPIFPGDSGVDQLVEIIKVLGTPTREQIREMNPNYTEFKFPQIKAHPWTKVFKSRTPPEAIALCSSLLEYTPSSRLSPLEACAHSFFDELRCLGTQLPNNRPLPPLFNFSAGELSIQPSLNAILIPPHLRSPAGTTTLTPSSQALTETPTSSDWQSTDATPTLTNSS
Summary of the method: as §1

[7] = target: T2, PRKX (UniProt P51817)
T2 sequence (whole entry): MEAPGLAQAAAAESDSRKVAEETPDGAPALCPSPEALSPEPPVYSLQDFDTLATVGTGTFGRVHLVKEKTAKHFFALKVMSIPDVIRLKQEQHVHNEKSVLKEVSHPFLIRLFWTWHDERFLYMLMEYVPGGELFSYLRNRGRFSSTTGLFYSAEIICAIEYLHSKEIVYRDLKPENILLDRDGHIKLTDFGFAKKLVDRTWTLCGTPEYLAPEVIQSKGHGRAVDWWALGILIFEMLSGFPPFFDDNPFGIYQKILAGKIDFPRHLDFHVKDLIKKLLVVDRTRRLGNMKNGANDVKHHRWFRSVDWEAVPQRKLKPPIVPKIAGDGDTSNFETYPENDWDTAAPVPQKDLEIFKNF
Summary of the method: as §1

[8] = target: T3, BCR (UniProt P11274); conditions: cell material: Lysate mix
T3 sequence (whole entry): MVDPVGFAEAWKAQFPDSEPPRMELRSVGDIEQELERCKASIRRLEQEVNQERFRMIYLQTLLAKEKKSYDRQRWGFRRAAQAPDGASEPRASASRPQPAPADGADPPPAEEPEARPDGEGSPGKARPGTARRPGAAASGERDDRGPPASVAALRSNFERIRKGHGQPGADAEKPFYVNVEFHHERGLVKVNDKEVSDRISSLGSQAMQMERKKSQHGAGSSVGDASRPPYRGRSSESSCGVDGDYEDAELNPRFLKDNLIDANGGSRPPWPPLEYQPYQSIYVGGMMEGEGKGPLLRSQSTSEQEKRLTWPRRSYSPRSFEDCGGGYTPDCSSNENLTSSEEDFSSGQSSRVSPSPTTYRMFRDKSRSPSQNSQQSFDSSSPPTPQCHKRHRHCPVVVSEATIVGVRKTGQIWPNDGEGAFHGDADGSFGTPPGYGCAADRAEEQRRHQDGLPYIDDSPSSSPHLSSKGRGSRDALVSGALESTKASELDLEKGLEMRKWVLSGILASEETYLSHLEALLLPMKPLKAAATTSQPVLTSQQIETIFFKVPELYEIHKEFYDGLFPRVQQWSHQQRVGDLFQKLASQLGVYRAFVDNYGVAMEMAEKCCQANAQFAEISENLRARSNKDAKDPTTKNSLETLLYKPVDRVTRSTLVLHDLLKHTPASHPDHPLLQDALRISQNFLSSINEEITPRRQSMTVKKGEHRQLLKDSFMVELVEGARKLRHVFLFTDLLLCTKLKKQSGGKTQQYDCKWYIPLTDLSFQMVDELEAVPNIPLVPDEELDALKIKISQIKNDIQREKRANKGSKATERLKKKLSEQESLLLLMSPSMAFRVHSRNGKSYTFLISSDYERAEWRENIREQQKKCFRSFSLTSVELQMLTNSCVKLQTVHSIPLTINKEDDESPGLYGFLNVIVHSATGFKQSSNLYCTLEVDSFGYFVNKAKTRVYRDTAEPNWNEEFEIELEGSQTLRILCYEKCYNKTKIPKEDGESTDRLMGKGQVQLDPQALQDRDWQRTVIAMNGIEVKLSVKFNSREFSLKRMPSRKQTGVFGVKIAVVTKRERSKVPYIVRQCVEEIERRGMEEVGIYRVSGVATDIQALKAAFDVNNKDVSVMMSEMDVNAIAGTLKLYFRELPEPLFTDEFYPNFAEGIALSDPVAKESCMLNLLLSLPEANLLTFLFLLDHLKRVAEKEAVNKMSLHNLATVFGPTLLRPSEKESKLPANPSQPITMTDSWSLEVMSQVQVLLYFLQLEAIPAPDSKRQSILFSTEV
Summary of the method: as §1

Chain of BMPR1B (O00238 whole entry): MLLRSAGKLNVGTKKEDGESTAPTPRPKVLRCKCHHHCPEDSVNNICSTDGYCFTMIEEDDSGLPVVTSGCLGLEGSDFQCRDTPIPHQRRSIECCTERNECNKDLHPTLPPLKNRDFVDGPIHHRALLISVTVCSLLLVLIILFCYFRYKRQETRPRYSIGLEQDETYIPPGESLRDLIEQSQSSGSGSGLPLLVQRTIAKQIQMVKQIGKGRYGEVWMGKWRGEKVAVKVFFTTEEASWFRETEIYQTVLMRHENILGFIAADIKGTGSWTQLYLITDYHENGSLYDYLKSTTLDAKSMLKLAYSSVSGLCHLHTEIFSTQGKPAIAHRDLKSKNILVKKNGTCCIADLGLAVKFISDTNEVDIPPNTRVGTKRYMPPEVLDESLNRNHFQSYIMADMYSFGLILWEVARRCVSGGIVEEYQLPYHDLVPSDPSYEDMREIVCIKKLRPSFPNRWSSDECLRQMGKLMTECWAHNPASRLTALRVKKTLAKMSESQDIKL

Row | SMILES | pIC50 [1] | pIC50 ([2]; cell material: Lysate mix) | pIC50 ([3]; cell material: Lysate mix) | pIC50 ([5]; cell material: Lysate mix) | pIC50 ([6]; cell material: Lysate mix) | pIC50 ([7]; cell material: Lysate mix) | pIC50 [8] | pIC50 ([4]; cell material: Lysate mix) | pIC50 ([2]; cell material: Jurkat cells) | pIC50 ([2]; cell material: Jurkat lysate) | pIC50 ([3]; cell material: Jurkat cells) | pIC50 ([3]; cell material: Jurkat lysate) | pIC50 ([4]; cell material: Jurkat cells) | pIC50 ([4]; cell material: Jurkat lysate) | pIC50 ([5]; cell material: Jurkat cells) | pIC50 ([6]; cell material: Jurkat cells) | pIC50 ([6]; cell material: Jurkat lysate) | pIC50 ([7]; cell material: Jurkat cells) | pIC50 ([7]; cell material: Jurkat lysate) | pIC50 ([5]; cell material: Jurkat lysate)
1 | O=C(NCCNC(=O)c1cc(Nc2cc(C3CC3)[nH]n2)nc(N2CCN(Cc3ccc(S(=O)(=O)F)cc3)CC2)n1)OC1CC/C=C/CCC1 (stereo not given) | < 4.52 | < 4.52 | < 4.52 | 4.98 | < 4.52 | < 4.52 | < 4.52 |  | 4.88 | < 4.52 | 5.8 | < 4.52 | 5.86 | < 4.52 | 6.39 | < 4.52 | < 4.52 | 5.28 | < 4.52 | 
2 | Cc1cc(Nc2cc(C(=O)NCCNC(=O)OC3CC/C=C/CCC3)nc(N3CCN(Cc4ccc(S(=O)(=O)F)cc4)CC3)n2)n[nH]1 (stereo not given) | < 4.52 | < 4.52 | < 4.52 | 4.92 | < 4.52 | < 4.52 | < 4.52 | < 4.52 |  |  |  |  |  |  |  |  |  |  |  | 
3 | C#CCNC(=O)c1cc(Nc2cc(C3CC3)[nH]n2)nc(N2CCN(Cc3ccc(S(=O)(=O)F)cc3)CC2)n1 | 4.78 | 4.72 | 6.21 | 6.22 | < 4.52 | 5.26 | < 4.52 | 6.39 | 5.34 | < 4.52 | 6.45 | 5.53 | 6.44 | 5.88 | 6.67 | 5.04 | < 4.52 | 5.76 | < 4.52 | 5.72

Continued, in another order:

Row | pIC50 [1] | pIC50 ([2]; cell material: Lysate mix) | pIC50 ([3]; cell material: Lysate mix) | pIC50 ([5]; cell material: Lysate mix) | pIC50 ([6]; cell material: Lysate mix) | pIC50 ([7]; cell material: Lysate mix) | pIC50 [8] | pIC50 ([4]; cell material: Lysate mix) | SMILES | pIC50 ([2]; cell material: Jurkat cells) | pIC50 ([2]; cell material: Jurkat lysate) | pIC50 ([3]; cell material: Jurkat cells) | pIC50 ([3]; cell material: Jurkat lysate) | pIC50 ([4]; cell material: Jurkat cells) | pIC50 ([4]; cell material: Jurkat lysate) | pIC50 ([5]; cell material: Jurkat cells) | pIC50 ([6]; cell material: Jurkat cells) | pIC50 ([6]; cell material: Jurkat lysate) | pIC50 ([7]; cell material: Jurkat cells) | pIC50 ([7]; cell material: Jurkat lysate) | pIC50 ([5]; cell material: Jurkat lysate)
4 | 5.08 | 4.65 | 5.77 | 5.94 | < 4.52 | 5 | < 4.52 | 6.27 | CCNC(=O)c1cc(Nc2cc(C3CC3)[nH]n2)nc(N2CCN(Cc3ccc(S(=O)(=O)F)cc3)CC2)n1 |  |  |  |  |  |  |  |  |  |  |  | 
5 | < 4.52 | 4.64 | 5.33 | 6.13 | < 4.52 | < 4.52 | < 4.52 | 5.63 | CCNC(=O)c1cc(Nc2cc(C)[nH]n2)nc(N2CCN(Cc3ccc(S(=O)(=O)F)cc3)CC2)n1 |  |  |  |  |  |  |  |  |  |  |  | 
6 | < 4.52 | 4.6 | 5.53 | 5.94 | < 4.52 | < 4.52 | < 4.52 | 5.49 | C#CCNC(=O)c1cc(Nc2cc(C)[nH]n2)nc(N2CCN(Cc3ccc(S(=O)(=O)F)cc3)CC2)n1 |  |  |  |  |  |  |  |  |  |  |  | 
